From publication PMC7822874, “Chemoprotective antimalarials identified through quantitative high-throughput screening of Plasmodium blood and liver stage parasites” (Scientific Reports, 2021)

Assays:
[1] = tested on: Plasmodium falciparum Dd2 asexual blood stage parasites; assay: microbe, parasite or virus in culture; set-up: species or system Plasmodium falciparum Dd2 in human erythrocytes; single determination (one 11-point concentration-response curve); conditions: Plasmodium falciparum, DD2, Erythrocyte, 72 h; read-out: AC50
[2] = in vitro; conditions: human, HepG2-A16-CD81EGFP cells, uninfected

CN(C)c1cc[n+](Cc2ccccc2)cc1 [MLS000070144-01]
AC50 [1]: 10600 nM
viability at 66 h [2]: 96.5%

O=S(=O)(c1ccc(Cl)cc1)N1CCN(/C(S)=N/c2ccccc2F)CC1 [MLS001002653-01]
AC50 [1]: 2370 nM
viability at 48 h, 1 µM [2]: 97%
viability at 48 h, 3 µM [2]: 94%

COC(=O)c1c(-c2c(Cl)cccc2Cl)noc1NC(=O)NN1CCCCC1 [MLS000861266-01]
AC50 [1]: 2370 nM
viability at 48 h, 1 µM [2]: 93%
viability at 48 h, 3 µM [2]: 87%

COc1cc(O)c(C(CCN2CCN(c3ccccc3)CC2)c2ccc(N(C)C)cc2)c(OC)c1 (stereo not drawn) [MLS000879536-01]
AC50 [1]: 596 nM
viability at 48 h, 1 µM [2]: 102%
viability at 48 h, 3 µM [2]: 99%

CCOC(=O)c1cn(CC)c2cc(N3CCSCC3)c(F)cc2c1=O [MLS000038775-01]
AC50 [1]: 1680 nM
viability at 48 h, 1 µM [2]: 89%
viability at 48 h, 3 µM [2]: 85%

COc1ccc(-c2csc3ncnc(Cl)c23)cc1 [MLS000765103-01]
AC50 [1]: 4220 nM
viability at 48 h, 1 µM [2]: 86%
viability at 48 h, 3 µM [2]: 86%

O=C(NCCCNc1ccnc2cc(Cl)ccc12)c1ccccc1F [MLS001215856-01]
AC50 [1]: 841 nM
viability at 48 h, 1 µM [2]: 85%
viability at 48 h, 3 µM [2]: 88%

CC1CCCCN1Cc1c(O)ccc2c(=O)c(-c3nc4ccccc4s3)c(N)oc12 (stereo not drawn) [MLS000591245-01]
AC50 [1]: 1060 nM
viability at 48 h, 1 µM [2]: 98%
viability at 48 h, 3 µM [2]: 95%

CCOc1ccccc1C1c2[nH]c3ccccc3c2C[C@H]2C(=O)N(C3CCN(Cc4ccccc4)CC3)CC(=O)N12 (stereo partly drawn) [MLS001215140-01]
AC50 [1]: 2370 nM
viability at 48 h, 1 µM [2]: 106%
viability at 48 h, 3 µM [2]: 101%

Cn1nc(C(F)(F)F)c(-c2cccc(C(F)(F)F)c2)c1NC(=O)Nc1ccc(F)cc1 [MLS000830770-01]
AC50 [1]: 2370 nM
viability at 48 h, 1 µM [2]: 98%
viability at 48 h, 3 µM [2]: 103%

CCCN(CCC)CCCNc1ccc(C(=O)Nc2cccc(OC)c2)cc1[N+](=O)[O-] [MLS000689411-01]
AC50 [1]: 5960 nM
viability at 48 h, 1 µM [2]: 106%
viability at 48 h, 3 µM [2]: 104%

Oc1ccc(Cl)cc1CNCc1cccc2ccccc12 [MLS002207460-01]
AC50 [1]: 841 nM
viability at 48 h, 1 µM [2]: 103%
viability at 48 h, 3 µM [2]: 107%

Cc1cn(-c2cc(C(=O)Nc3ccc(C)c(NC(=O)C(=O)c4c[nH]c5ccccc45)c3)cc(C(F)(F)F)c2)cn1 [MLS003105973-01]
AC50 [1]: 2110 nM
viability at 48 h [2]: 112%
viability at 48 h, 1 µM [2]: 112%

COc1ccc(C(CCN2CCCCC2)c2c(O)cc(OC)cc2OC)cc1 (stereo not drawn) [MLS000879486-01]
AC50 [1]: 1330 nM
viability at 48 h, 1 µM [2]: 90%
viability at 48 h, 3 µM [2]: 85%

CC(C)C(=O)OCC(=O)[C@@]12O[C@H](C3CCCCC3)O[C@@H]1C[C@H]1[C@@H]3CCC4=CC(=O)C=C[C@]4(C)[C@H]3[C@@H](O)C[C@@]12C [NCGC00167484-01]
AC50 [1]: 2660 nM
viability at 48 h, 1 µM [2]: 97%
viability at 48 h, 3 µM [2]: 94%

CCN(CC)CCC(c1ccc(OC)cc1)c1c(O)cc(OC)cc1OC (stereo not drawn) [MLS000879488-01]
AC50 [1]: 6680 nM
viability at 66 h [2]: 99.6%

Cc1ccc(-n2c(C)cc(C(=O)OCC(=O)N(C)C3CCS(=O)(=O)C3)c2C)cc1 (stereo not drawn) [MLS000098265-01]
AC50 [1]: 4730 nM
viability at 66 h [2]: 101%

CN(CCNC(=O)c1cc2c(-c3ccccc3F)nn(C)c2s1)C1CCCCC1 [MLS001199243-01]
AC50 [1]: 5960 nM
viability at 48 h, 1 µM [2]: 84%
viability at 48 h, 3 µM [2]: 84%

CCc1cc2c(=O)c(-c3cnn(-c4ccccc4)c3)c(C)oc2c(CN2CCCCC2)c1O [MLS000530719-01]
AC50 [1]: 1330 nM
viability at 48 h, 1 µM [2]: 105%
viability at 48 h, 3 µM [2]: 105%

CCOC(=O)c1nnn(-c2nonc2-n2cccc2)c1CN1CCCCC1 [MLS000090434-01]
AC50 [1]: 7500 nM
viability at 48 h, 1 µM [2]: 102%
viability at 48 h, 3 µM [2]: 100%

CCN(CC)CCCC(C)Nc1cc(C=Cc2ccccc2Cl)nc2cc(Cl)ccc12 (stereo not drawn) [NCGC00160524-01]
AC50 [1]: 841 nM
viability at 48 h, 1 µM [2]: 103%
viability at 48 h, 3 µM [2]: 99%

NNC(=O)CN1C(c2cccc(Cl)c2)=Nc2ccc(Br)cc2C1c1ccccc1 (stereo not drawn) [MLS000558682-01]
AC50 [1]: 2660 nM
viability at 48 h, 1 µM [2]: 90%
viability at 48 h, 3 µM [2]: 89%

CCCN1CCc2c(sc3nc(SC)n(-c4ccccc4)c(=O)c23)C1 [MLS001173550-01]
AC50 [1]: 2660 nM
viability at 48 h, 1 µM [2]: 112%
viability at 48 h, 3 µM [2]: 101%

Oc1ccc(Nc2ccnc3cc(Cl)ccc23)cc1 [MLS000737975-01]
AC50 [1]: 1680 nM
viability at 66 h [2]: 96.9%

COc1cc2c(cc1O)CC[n+]1cc3c(OC)c(OC)ccc3cc1-2 [MLS000563433-01]
AC50 [1]: 7500 nM
viability at 66 h [2]: 97.8%

O=c1c(-c2ccc(Br)cc2)coc2c(CN3CCCCC3)c(O)ccc12 [MLS001214902-01]
AC50 [1]: 2110 nM
viability at 66 h [2]: 98.2%

Cc1cc(C)cc(/N=C/c2[nH]c3ccc(Br)c(Cl)c3c2O)c1 [MLS000586008-01]
AC50 [1]: 11900 nM
viability at 48 h, 1 µM [2]: 104%
viability at 48 h, 3 µM [2]: 99%
